Assay: Brain penetration (Kp,uu) in CD-1 mice, with plasma and brain tissue binding by equilibrium dialysis
Type: in vivo
Settings: mouse, brain and plasma (unbound), male CD-1 mice, single IV bolus 1 mg/kg
Experimental: The compounds disclosed herein were tested on CD-1 mice for brain penetration (Kp, uu) according to the following procedures.
Nine male CD-1 mice were administered TEST COMPOUND by single intravenous bolus administration at 1 mg/kg. The vehicle used for IV study was 5% DMSO, 5% solutol, 20% PEG300 and 70% water. The detailed dosing and sampling regimens are described in the following tables.
1.0 mg of test compound was accurately weighed into a glass vial, and slowly added with 104 μL of DMSO and vortexed for 1 min. Then 104 μL of solutol was added and vortexed for 1 min. Then 415 μL of PEG300 was added and vortexed for 1 min. Then 1000 μL of water was added and vortexed for 1 min. Finally, 451 μL of water was added and vortexed for 1 min to get a clear solution.
The body weights were in the range from 28.81 to 31.25 g for males on the first dosing day. All animals received a single intravenous bolus administration of TEST COMPOUND from the tail vein.
Each blood collection (about 0.06 mL per time point) was performed from saphenous vein of each animal into pre-chilled commercial K2-EDTA tubes as anti-coagulant and placed on wet ice until centrifugation.
Plasma samples were then prepared by centrifuging the blood samples at approximately 4° C., 3200×g for 10 minutes. All plasma samples were then quickly frozen over dry ice and kept at −60° C. or lower until LC-MS/MS analysis.
Brain tissue was homogenized using homogenizing buffer (15 mM PBS (pH7.4): MeOH=2:1) at the ratio of 1:9 (1 g tissue with 9 mL buffer, the dilution ratio is 10). The tissue homogenate was kept at −60° C. or lower until LC-MS/MS analysis.
The concentrations of TEST COMPOUND in plasma and brain were determined by using an LC-MS/MS method.
The plasma and brain concentration of TEST COMPOUND in study animals was subjected to a non-compartmental pharmacokinetic analysis by using the Phoenix WinNonlin software program (version 6.3 or above, Pharsight). The linear/log trapezoidal rule was applied in obtaining the PK parameters.
Individual plasma and brain concentration values that were below the lower limit of quantitation (LLOQ) were excluded from the PK parameter calculation. The nominal dose levels and nominal sampling times were used in the calculation of all pharmacokinetic parameters.
Mouse Kp, uu=(% free in mouse brain*concentration in mouse brain)/(% free in mouse plasma*concentration in mouse plasma)
The dialysis apparatus was assembled according to the manufacturer's instruction. Each Cell was filled with 120 μL of spiked plasma sample and dialyzed against equal volume of dialysis buffer (PBS). The assay was performed in duplicate. The dialysis plates were sealed and incubated in an incubator at 37° C. with 5% CO2 and rotated at 100 rpm for 6 hours. At the end of incubation, the seals were removed and 50 μL of samples from both buffer and plasma chambers were transferred to a 96-well plate.
All calculations were carried out using Microsoft Excel. The concentrations of test compound and control compound in the buffer and plasma chambers were determined from peak area ratios (PAR) of analyte to internal standard. Protein binding (% unbound and % bound) and recovery (% recovery) of test and control compounds was calculated as follows:
• 1. Thawing of the frozen brain (stored at −80° C.) • Frozen brain tissue was thawed at room temperature in a bath. Only brain tissue was used that was thawed no more than once. • 2. Preparation of brain tissue homogenate • Brain tissue homogenate was prepared by diluting one quantity (g) of the whole brain tissue with three volumes (mL) of buffer (PBS, pH 7.4) and homogenizing the mixture using a tissue homogenizer. Brain tissue homogenate was frozen at −80° C. for later use/comparison. • 3. Preparation of working solutions • The working solutions of test compound and the control compound propranolol were prepared in dimethyl sulfoxide (DMSO) at the concentration of 200 μM. […]

| Structure (SMILES) | Kp uu |
| --- | --- |
| Cc1n[nH]c2c1N=C(c1c(F)cccc1F)Nc1c-2cc(N2CCO[C@@H](C)C2)nc1C [Example 40, (S)-4-(5-(2,6-difluorophenyl)-3,7-dimethyl-1,6-dihydropyrazolo[4,3-d]pyrido[4,3-f][1,3]diazepin-9-yl)-2-methylmorpholine] | < 0.2 |
| Cc1n[nH]c2c1N=C(c1c(F)cccc1F)Nc1c-2cc(N2CC3(CCOCC3)C2)nc1C [Example 47, 2-[8-(2,6-difluorophenyl)-5,11-dimethyl-3,4,7,9,12-pentazatricyclo[8.4.0.02,6]tetradeca-1(10),2(6),4,7,11,13-hexaen-13-yl]-7-oxa-2-azaspiro[3.5]nonane] | 0.2 to 0.4 |

Next, values leading:

| Kp uu | Structure (SMILES) |
| --- | --- |
| 0.2 to 0.4 | Cc1n[nH]c2c1N=C(c1c(F)cccc1F)N1CCc3nc(N4CCOCC4)cc-2c31 [Example 42, 4-[8-(2,6-difluorophenyl)-5-methyl-3,4,7,9,13-pentazatetracyclo[7.6.1.02,6.012,16]hexadeca-1(16),2(6),4,7,12,14-hexaen-14-yl]morpholine] |
| < 0.2 | Cc1n[nH]c2c1N=C(c1c(F)cccc1F)Nc1cnc(N3CCO[C@@H](C(F)(F)F)C3)cc1-2 [Example 55, (2R)-4-[8-(2,6-difluorophenyl)-5-methyl-3,4,7,9,12-pentazatricyclo[8.4.0.02,6]tetradeca-1(10),2(6),4,7,11,13-hexaen-13-yl]-2-(trifluoromethyl)morpholine] |
| < 0.2 | Cn1nccc1-c1cc2c(cn1)NC(c1c(F)cccc1F)=Nc1c(Cl)n[nH]c1-2 [Example 59, 3-chloro-5-(2,6-difluorophenyl)-9-(1-methyl-1H-pyrazol-5-yl)-1,6-dihydropyrazolo[4,3-d]pyrido[4,3-f][1,3]diazepine] |
